According to paper PMC7052193, “Nanobody-enabled monitoring of kappa opioid receptor states” (Nature Communications, 2020):
Values joined by “and” are separate entries in the source; they are usually repeats but may differ in a detail not shown here. Equal values may be shown once. Read-outs that look alike come from different tables or passages of the source.

Legend:
KOR [1] = target: T1, KOR (Homo sapiens, UniProt P41145); experiment: cAMP inhibition assay (GloSensor); assay type: cell-based
kappa receptor = target: kappa receptor; design: method as in Thomas JB et al., 2001; details: previously reported; ref Thomas JB et al., 2001; read-out: Ki, kappa receptor binding assay; cited from earlier work
human wild-type KOR = human wild-type KOR (Homo sapiens, UniProt P41145); experiment: [3H]-JDTic association and dissociation assays; assay type: binding
Description: Radioligand dissociation and association assays were performed in parallel using the same concentrations of radioligand, membrane preparations and binding buffer (50 mM Tris, 10 mM MgCl2, 0.1 mM EDTA, 0.1% BSA, pH 7.4).
Time points spanned 1 min to 6 h, depending on experimental conditions and radioligand. The association (Kon) and dissociation (Koff) values were calculated using the Prism model:
Association kinetics to obtain kon5 Y=Ymax*(1−e^−kob*X).
Dissociation—one phase exponential decay to obtain koff6 Y=YO−NS*e^−K*X,

HRH2 [2] = target: HRH2 (Homo sapiens, UniProt P25021); details: Log [Histamine]
HRH2 [3] = details: Log [Histamine]
HRH2 [4] = details: Gαs, HRH2 wt
5-HT2AR [5] = assay type: cell-based, human; details: 5-HT2AR-KOR, Log [Drug]
5-HT2AR [6] = assay type: cell-based, human; details: 5-HT2AR-KOR, Log [5-HT]
5-HT4R = assay type: cell-based, human; details: Gαs, 5-HT4R wt
GPR111 = experiment: BRET assay GPR111 / GPR111-KOR and Nb6, basal state; assay type: cell-based
ETA = target: T2, ETA (Homo sapiens, UniProt P25101); assay type: cell-based; details: wild-type ETA
T2 construct: expressed in transfected cells; host or cells: HEK 293T
T2 sequence (P25101 21-427): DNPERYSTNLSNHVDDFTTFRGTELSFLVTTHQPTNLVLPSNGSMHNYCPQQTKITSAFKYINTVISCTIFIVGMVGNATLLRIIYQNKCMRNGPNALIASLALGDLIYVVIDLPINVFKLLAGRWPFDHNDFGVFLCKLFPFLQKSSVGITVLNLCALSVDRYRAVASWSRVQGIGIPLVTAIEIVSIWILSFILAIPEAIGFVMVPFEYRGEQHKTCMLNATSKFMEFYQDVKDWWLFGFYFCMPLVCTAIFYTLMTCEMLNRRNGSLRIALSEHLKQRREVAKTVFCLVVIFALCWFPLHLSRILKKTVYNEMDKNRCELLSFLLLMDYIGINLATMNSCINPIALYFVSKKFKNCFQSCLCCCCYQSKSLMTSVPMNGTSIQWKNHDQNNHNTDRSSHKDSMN

GPR151 [7] = target: T3, GPR151 (Homo sapiens, UniProt Q8TDV0); assay type: cell-based; details: GPR151 and Nb6
T3 construct: expressed in transfected cells; host or cells: HEK 293T
T3 sequence (Q8TDV0 1-419): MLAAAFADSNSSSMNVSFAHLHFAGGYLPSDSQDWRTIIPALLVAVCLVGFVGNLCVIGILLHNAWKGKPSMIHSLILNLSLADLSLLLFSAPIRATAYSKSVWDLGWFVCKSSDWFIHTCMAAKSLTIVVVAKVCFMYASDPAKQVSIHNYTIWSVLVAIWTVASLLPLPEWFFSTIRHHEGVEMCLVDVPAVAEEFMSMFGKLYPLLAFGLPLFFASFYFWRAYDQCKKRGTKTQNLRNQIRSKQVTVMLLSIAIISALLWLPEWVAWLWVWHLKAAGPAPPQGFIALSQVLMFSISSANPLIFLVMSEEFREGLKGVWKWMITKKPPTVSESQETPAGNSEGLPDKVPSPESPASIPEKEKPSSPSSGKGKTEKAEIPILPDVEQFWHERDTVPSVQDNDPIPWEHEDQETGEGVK

GPR151 [8] = assay type: cell-based; details: GPR151-KOR and Nb6
human KOR [9] = target: human KOR (Homo sapiens, UniProt P41145, D266A); experiment: BRET assay, KOR-Rluc and Nb6-mVenus: Nb6 binding / agonist-induced dissociation; assay type: cell-based
human KOR [10] = target: human KOR (Homo sapiens, UniProt P41145, R274A); experiment: as above; assay type: cell-based
human KOR [11] = target: T4, human KOR (Homo sapiens, UniProt P41145, R270M); experiment: as above; assay type: cell-based
T4 construct: expressed in transfected cells; host or cells: HEK 293T

human KOR [12] = target: T5, human KOR (Homo sapiens, UniProt P41145, R263A); experiment: as above; assay type: cell-based
T5 construct: expressed in transfected cells; host or cells: HEK 293T

human KOR [13] = target: human KOR (Homo sapiens, UniProt P41145, L253A); experiment: as above; assay type: cell-based
human KOR [14] = target: human KOR (Homo sapiens, UniProt P41145, R270A); experiment: as above; assay type: cell-based
human KOR [15] = target: T6, human KOR (Homo sapiens, UniProt P41145, R271A); experiment: as above; assay type: cell-based
T6 construct: expressed in transfected cells; host or cells: HEK 293T

KOR [16] = target: T1, KOR; experiment: as above; assay type: cell-based
human KOR [17] = target: T7, human KOR (Homo sapiens, UniProt P41145, D266L); experiment: as above; assay type: cell-based
T7 construct: expressed in transfected cells; host or cells: HEK 293T

human KOR [18] = target: T8, human KOR (Homo sapiens, UniProt P41145, R257A); experiment: as above; assay type: cell-based
T8 construct: expressed in transfected cells; host or cells: HEK 293T

5-HT2AR [19] = target: T9, 5-HT2AR (Homo sapiens, UniProt P28223); assay type: cell-based; details: wild-type 5-HT2AR
T9 construct: expressed in transfected cells; host or cells: HEK 293T

GPR149 = assay type: cell-based; details: GPR149-KOR and Nb6
[20] = target: T10, human KOR containing C-terminal Renilla luciferase (RLuc8) (human, UniProt P41145); experiment: FRET or BRET; kinetic BRET in HEK 293T cells co-expressing KOR-Rluc and Nb6-mVenus or Nb39-mVenus; 10 µM Sal A, then 10 µM JDTic added at the indicated times; t1/2 from one phase exponential decay; details: partners not purified
T10 construct: kappa opioid receptor, human, wild type; also called KOR-Rluc; kappa opioid receptor; source: HEK 293T, co-transfected, in live cells; not shown: RLuc8, C-terminal, kept

[21] = read-out: EC50, G protein activation

T8 sequence (P41145 whole entry R257A): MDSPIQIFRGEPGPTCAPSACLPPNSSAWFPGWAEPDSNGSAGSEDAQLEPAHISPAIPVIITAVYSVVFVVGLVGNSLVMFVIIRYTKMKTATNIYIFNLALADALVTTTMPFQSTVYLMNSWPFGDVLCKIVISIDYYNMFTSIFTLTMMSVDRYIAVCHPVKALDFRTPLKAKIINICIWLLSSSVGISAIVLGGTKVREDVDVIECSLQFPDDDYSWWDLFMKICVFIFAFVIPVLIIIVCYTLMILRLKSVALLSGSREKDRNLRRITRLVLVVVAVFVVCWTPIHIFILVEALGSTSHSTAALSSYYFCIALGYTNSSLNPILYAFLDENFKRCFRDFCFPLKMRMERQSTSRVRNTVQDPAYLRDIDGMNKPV
HRH2 (Homo sapiens, UniProt P25021), sequence (P25021 whole entry): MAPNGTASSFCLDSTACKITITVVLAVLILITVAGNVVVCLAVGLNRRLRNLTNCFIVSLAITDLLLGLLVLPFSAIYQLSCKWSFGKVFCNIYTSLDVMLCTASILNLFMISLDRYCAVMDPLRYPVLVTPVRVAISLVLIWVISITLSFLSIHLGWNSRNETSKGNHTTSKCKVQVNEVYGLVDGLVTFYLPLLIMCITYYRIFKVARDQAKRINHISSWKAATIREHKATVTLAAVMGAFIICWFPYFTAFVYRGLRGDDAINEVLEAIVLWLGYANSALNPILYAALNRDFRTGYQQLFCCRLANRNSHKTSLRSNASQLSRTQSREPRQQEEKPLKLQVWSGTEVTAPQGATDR
T5 sequence (P41145 whole entry R263A): as the sequence (P41145 whole entry R257A) above, with A257R, R263A counted along it
human wild-type KOR, sequence (P41145 whole entry): as the sequence (P41145 whole entry R257A) above, with A257R counted along it
T1 sequence (P41145 whole entry): as the sequence (P41145 whole entry R257A) above, with A257R counted along it
T7 sequence (P41145 whole entry D266L): as the sequence (P41145 whole entry R257A) above, with A257R, D266L counted along it
T4 sequence (P41145 whole entry R270M): as the sequence (P41145 whole entry R257A) above, with A257R, R270M counted along it
T6 sequence (P41145 whole entry R271A): as the sequence (P41145 whole entry R257A) above, with A257R, R271A counted along it
T10 sequence (P41145 whole entry): as the sequence (P41145 whole entry R257A) above, with A257R counted along it
T9 sequence (P28223 whole entry): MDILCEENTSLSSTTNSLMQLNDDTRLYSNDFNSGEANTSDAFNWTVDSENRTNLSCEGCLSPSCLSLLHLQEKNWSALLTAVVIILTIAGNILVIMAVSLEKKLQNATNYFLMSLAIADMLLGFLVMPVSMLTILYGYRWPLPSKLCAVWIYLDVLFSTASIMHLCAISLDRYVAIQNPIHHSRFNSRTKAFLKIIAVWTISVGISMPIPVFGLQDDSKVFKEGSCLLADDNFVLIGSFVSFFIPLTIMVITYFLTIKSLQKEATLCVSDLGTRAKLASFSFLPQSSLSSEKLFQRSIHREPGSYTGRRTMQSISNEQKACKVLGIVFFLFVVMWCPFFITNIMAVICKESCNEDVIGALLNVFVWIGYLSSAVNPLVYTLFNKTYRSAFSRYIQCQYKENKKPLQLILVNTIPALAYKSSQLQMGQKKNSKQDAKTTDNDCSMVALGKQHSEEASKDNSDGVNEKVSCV

CC(C)[C@@H](CN1CC[C@@](C)(c2cccc(O)c2)[C@@H](C)C1)NC(=O)[C@H]1Cc2ccc(O)cc2CN1 [JDTic, (3R)-7-hydroxy-N-((1S)-1-[[(3R,4R)-4-(3-hydroxyphenyl)-3,4-dimethyl-1-piperidinyl]methyl]-2-methylpropyl)-1,2,3,4-tetrahydro-3-isoquinolinecarboxamide]
activity at KOR, Gi-mediated inhibition of cAMP production (KOR [1]): potent inverse agonist
Ki (kappa receptor): 0.3 nM
change of binding affinity (Ki) or equilibrium constant (Kd) with KOR in the presence of Nb6 or Nb39 (human wild-type KOR): no significant changes
t1/2 increase, KOR preincubated with Nb6 compared to untreated KOR (human wild-type KOR): ~ 2 fold
BMAX ± SEM (human wild-type KOR; KOR + Nb6): 468 ± 54 CPM
BMAX ± SEM (human wild-type KOR; KOR + Nb39): 423 ± 59 CPM
BMAX ± SEM (human wild-type KOR; KOR wt): 412 ± 46 CPM

NCCc1c[nH]cn1 [Histamine]
HRH2 wt (Figure S10) (HRH2 [2]; M -4): 0.035 and 0.037 and 0.032
HRH2 wt (Figure S10) (HRH2 [2]; M -5): 0.04 and 0.037 and 0.043
HRH2 wt (Figure S10) (HRH2 [2]; M -6): 0.037 and 0.041 and 0.043
HRH2 wt (Figure S10) (HRH2 [2]; M -7): 0.041 and 0.036 and 0.042
HRH2 wt (Figure S10) (HRH2 [2]; M -8): 0.038 and 0.039
HRH2 wt (Figure S10) (HRH2 [2]; M -9): 0.037 and 0.039 and 0.042
HRH2 wt (Figure S10) (HRH2 [2]; M -10): 0.036 and 0.04 and 0.031
HRH2 wt (Figure S10) (HRH2 [2]; M -11): 0.029 and 0.038 and 0.037
HRH2-KOR (Figure S10) (HRH2 [3]; M -4): 5.219 and 6.229 and 8.754
HRH2-KOR (Figure S10) (HRH2 [3]; M -8): 49.1583 and 70.3704
HRH2-KOR (Figure S10) (HRH2 [3]; M -9): 71.8855 and 67.8451 and 91.0774
HRH2-KOR (Figure S10) (HRH2 [3]; M -10): 90.0673 and 96.633 and 108.754
HRH2-KOR (Figure S10) (HRH2 [3]; M -11): 95.6229 and 98.6532 and 105.724
pEC50 ± SEM, G protein activation (HRH2 [4]): 7.64 ± 0.10
EC50 (HRH2 [4]; [21]): 23.2 nM

NCCc1c[nH]c2ccc(O)cc12 [5-HT]
Net BRET G protein activation, source data Figure 5c (5-HT2AR [5]; M = -5): 4.77 and 5.378 and 5.642
Net BRET G protein activation, source data Figure 5c (5-HT2AR [5]; M = -7): 5.149 and 9.509 and 8.117
Net BRET G protein activation, source data Figure 5c (5-HT2AR [5]; M = -8): 64.908 and 45.488 and 55.524
Net BRET G protein activation, source data Figure 5c (5-HT2AR [5]; M = -9): 89.3557 and 61.3025 and 75.4781
Net BRET G protein activation, source data Figure 5c (5-HT2AR [5]; M = -10): 101.409 and 99.4572 and 101.001
Net BRET G protein activation, source data Figure 5c (5-HT2AR [5]; M = -11): 93.2037 and 102.876 and 98.9921
Net BRET G protein activation, source data Figure 5c (5-HT2AR [5]; M = -12): 99.8736 and 92.5765 and 96.7631
Net BRET receptor and Nb6, source data Figure 5b (5-HT2AR [6]; M = -4): 4.555 and 4.236 and 2.584
Net BRET receptor and Nb6, source data Figure 5b (5-HT2AR [6]; M = -6): 27.0627 and 18.3518 and 18.7135
Net BRET receptor and Nb6, source data Figure 5b (5-HT2AR [6]; M = -7): 54.7274 and 50.7842 and 46.0256
Net BRET receptor and Nb6, source data Figure 5b (5-HT2AR [6]; M = -8): 79.692 and 81.7337 and 74.4168
Net BRET receptor and Nb6, source data Figure 5b (5-HT2AR [6]; M = -9): 96.2676 and 98.9652 and 90.7989
Net BRET receptor and Nb6, source data Figure 5b (5-HT2AR [6]; M = -10): 102.206 and 99.7037 and 92.1127
Net BRET receptor and Nb6, source data Figure 5b (5-HT2AR [6]; M = -11): 99.4094 and 102.177 and 98.4133
pEC50 ± SEM, G protein activation (5-HT4R): 8.55 ± 0.13
EC50 (5-HT4R; [21]): 2.85 nM

B1: Nb6-mVenus (VHH)
VHH: QVQLQESGGGLVQAGESLRLSCAASGTIFRLYDMGWYRRVSGNQRELVASITSGGSTKYGDSVKGRFTISRDNAKNTVYLQMSSLKPEDTAVYYCNAEYRTGIWEELLDGWGQGTQVTVSS
notes: as the chain of m2, nanobody chain of PDB 6VI4; source: HEK 293T, co-transfected, in live cells; not shown: mVenus, C-terminal, kept
BRET receptor and Nb6 in basal state, source data Figure 5e (GPR111): 96.3553 and 106.675 and 85.5388 and 88.3471
interaction with Nb6 in the BRET assay (ETA): did not display measurable interaction
BRET receptor and Nb6 in basal state, source data Figure 5e (GPR151 [7]): 4.933 and 5.929 and 5.0734 and 5.659
BRET receptor and Nb6 in basal state, source data Figure 5e (GPR151 [8]): 96.9506 and 102.894 and 103.581 and 99.837
Net BRET, KOR mutations with Nb6, source data Figure 3b (human KOR [9]): 0.1429 and 0.1064 and 0.08886 and 0.09293
Net BRET, KOR mutations with Nb6, source data Figure 3b (human KOR [10]): 1.098 and 1.114 and 1.1115 and 1.116 and 1.123 and 1.128
Net BRET, KOR mutations with Nb6, source data Figure 3b (human KOR [11]): 0.05686 and 0.05346 and 0.04737 and 0.04878 and 0.05049 and 0.05323
Net BRET, KOR mutations with Nb6, source data Figure 3b (human KOR [12]): 0.9862 and 0.9845 and 1.038 and 1.045 and 1.021 and 1.043
Net BRET, KOR mutations with Nb6, source data Figure 3b (human KOR [13]): 1.189 and 1.193 and 1.2037 and 1.27 and 1.206 and 1.301
Net BRET, KOR mutations with Nb6, source data Figure 3b (human KOR [14]): 0.07102 and 0.06841 and 0.07532 and 0.07378 and 0.08027 and 0.09204
Net BRET, KOR mutations with Nb6, source data Figure 3b (human KOR [15]): 1.2246 and 1.2 and 1.237 and 1.199 and 1.227 and 1.2457
Net BRET, KOR mutations with Nb6, source data Figure 3b (KOR [16]): 1.21 and 1.208 and 1.235 and 1.249 and 1.256 and 1.272
Net BRET, KOR mutations with Nb6, source data Figure 3b (human KOR [17]): 0.05761 and 0.05183 and 0.0517 and 0.0557 and 0.08302 and 0.08918
Net BRET, KOR mutations with Nb6, source data Figure 3b (human KOR [18]): 1.007 and 0.9978 and 1.013 and 1.028 and 1.043 and 1.085
interaction with Nb6 in the BRET assay (5-HT2AR [19]): did not display measurable interaction
BRET receptor and Nb6 in basal state, source data Figure 5e (GPR149): 100.397 and 94.0625 and 97.7156 and 109.725
t1/2 of the decrease in Nb6-KOR BRET after the agonist Sal A [20]: 50 ± 10 s
t1/2 of the increase of the BRET ratio after JDTic (following Sal A) [20]: 75 ± 12 s
